Assay results reported in ChEMBL document CHEMBL1151393, “Biologically active pyrrolizidine alkaloids from the true forget-me-not, Myosotis scorpioides” (J Nat Prod, 1982).

Legend:
Format in all cases: organism-based
Settings in all cases: in vivo
Mus musculus [1] = assay: Toxicity in BS1 mouse at 63 mg/kg, ip; set-up: dose 63 mg/kg, route intraperitoneal
Mus musculus [2] = assay: Toxicity in BS1 mouse at 125 mg/kg, ip; set-up: dose 125 mg/kg, route intraperitoneal
Mus musculus [3] = assay: Toxicity in BS1 mouse assessed as lethargy at 250 mg/kg, ip; set-up: dose 250 mg/kg, route intraperitoneal
Mus musculus [4] = assay: Toxicity in BS1 mouse assessed as ataxia at 250 mg/kg, ip; set-up: dose 250 mg/kg, route intraperitoneal
Mus musculus [5] = assay: Toxicity in BS1 mouse assessed as death at 500 mg/kg, ip within 4 mins; set-up: dose 500 mg/kg, route intraperitoneal
Mus musculus [6] = assay: Toxicity in BS1 mouse assessed as occurrence of liver lesions at 250 mg/kg, ip; set-up: dose 250 mg/kg, route intraperitoneal
Mus musculus [7] = assay: Toxicity in BS1 mouse assessed as lethargy, ataxia, gasping and clonic convulsion at 500 mg/kg, ip within 4 mins; set-up: dose 500 mg/kg, route intraperitoneal

| Structure (SMILES) | Activity (Mus musculus [1]) | Activity (Mus musculus [2]) | Activity (Mus musculus [3]) | Activity (Mus musculus [4]) | Activity (Mus musculus [5]) | Activity (Mus musculus [6]) | Activity (Mus musculus [7]) |
| --- | --- | --- | --- | --- | --- | --- | --- |
| C/C=C(\C)C(=O)O[C@@H](C)[C@](O)(C(=O)OCC1=CCN2CC[C@@H](OC(C)=O)[C@@H]12)C(C)C | Non-toxic | Non-toxic | Toxic | Toxic | Toxic | Non-toxic | Toxic |
| C/C=C(\C)C(=O)O[C@@H](C)[C@](O)(C(=O)OCC1=CCN2CC[C@@H](O)[C@@H]12)C(C)C [SCORPIOIDINE] | Non-toxic | Non-toxic | Toxic | Toxic | Toxic | Non-toxic | Toxic |
